Where two headings read alike, the source gives them in different places. No end group written: not given here.
Tests used:
[1] = molecular target: T1, WT hPTH-1 receptor (Homo sapiens, UniProt Q03431); experiment: cAMP stimulation in COS-7 cells transiently transfected with WT hPTH-1 receptor; format: cell-based
T1 construct: encoding the intact hPTH-1 receptor (HK-WT); expressed in transfected cells; host or cells: COS-7, transient, pcDNA-1 plasmid
T1 sequence (Q03431 27-593): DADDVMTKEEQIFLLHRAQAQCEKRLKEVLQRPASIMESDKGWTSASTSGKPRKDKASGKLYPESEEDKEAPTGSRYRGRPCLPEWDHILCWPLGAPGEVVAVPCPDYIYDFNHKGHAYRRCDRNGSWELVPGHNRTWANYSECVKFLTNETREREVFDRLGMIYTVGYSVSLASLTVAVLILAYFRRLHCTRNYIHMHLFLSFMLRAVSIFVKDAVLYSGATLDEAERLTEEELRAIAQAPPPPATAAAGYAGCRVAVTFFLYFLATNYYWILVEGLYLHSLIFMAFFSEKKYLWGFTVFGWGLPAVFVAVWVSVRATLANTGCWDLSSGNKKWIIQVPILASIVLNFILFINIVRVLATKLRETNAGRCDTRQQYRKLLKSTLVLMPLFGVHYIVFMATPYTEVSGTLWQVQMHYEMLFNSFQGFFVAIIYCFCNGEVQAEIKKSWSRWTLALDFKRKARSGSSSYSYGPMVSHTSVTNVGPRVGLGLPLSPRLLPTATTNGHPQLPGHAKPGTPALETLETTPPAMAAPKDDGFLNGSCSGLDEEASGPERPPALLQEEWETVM
Description: (§1) COS-7 cells were transfected in 24-well plates when the cells were 85 to 95% of confluency using 200 ng of plasmid DNA that was purified by cesium chloride/ethidium bromide gradient centrifugation for each well. Assays were conducted 72 to 96 hours after transfection.
(§2) Stimulation of cells with peptide analogs was performed in 24-well plates. Cells were rinsed with 0.5 mL of binding buffer and treated with 200 μL of cAMP assay buffer (Dulbecco's modified Eagle's medium containing 2 mM 3-isobutyl-1-methylxanthine, 1 mg/mL bovine serum albumin, 35 mM Hepes-NaOH, pH 7.4) and 100 μL of binding buffer containing varying amounts of peptide analog (final volume=300 μL). The medium was removed after incubation for 1 h at room temperature, and the cells were frozen (−80° C.), lysed with 0.5 mL 50 mM HCl, and refrozen (−80° C.). The cAMP content of the diluted lysate was determined by radioimmunoassay. Where possible, cAMP EC50 and Maximum response values were determined using nonlinear regression (see below).
(§3) All calculations were performed using Microsoft Excel. Nonlinear regression analysis of cAMP stimulation data was performed using parameters, defined as the Minimum, Maximum, Emax, midpoint (EC50), and slope of the response curve. The predicted response (yp) for a given dose (x) of peptide was calculated using the following equation: yp=Min+[(Max−Min)/(1+(EC50/x)^slope)]. […] The statistical significance between two data sets was determined using a one-tailed Student's t-test, assuming unequal variances for the two sets.

[2] = molecular target: T2, truncated human PTH-1 receptor, hΔNt (Homo sapiens, UniProt Q03431); experiment: cAMP stimulation in COS-7 cells transiently transfected with truncated receptor hDeINt; format: cell-based; settings: for Emax: hDeINt, Emax constrained to peptide #7 (20 μM) response
T2 construct: expressed in transfected cells; host or cells: COS-7, transient, pcDNA-1 plasmid derived from HK-WT
T2 sequence (Q03431 with tags, fused parts or gaps limits assumed): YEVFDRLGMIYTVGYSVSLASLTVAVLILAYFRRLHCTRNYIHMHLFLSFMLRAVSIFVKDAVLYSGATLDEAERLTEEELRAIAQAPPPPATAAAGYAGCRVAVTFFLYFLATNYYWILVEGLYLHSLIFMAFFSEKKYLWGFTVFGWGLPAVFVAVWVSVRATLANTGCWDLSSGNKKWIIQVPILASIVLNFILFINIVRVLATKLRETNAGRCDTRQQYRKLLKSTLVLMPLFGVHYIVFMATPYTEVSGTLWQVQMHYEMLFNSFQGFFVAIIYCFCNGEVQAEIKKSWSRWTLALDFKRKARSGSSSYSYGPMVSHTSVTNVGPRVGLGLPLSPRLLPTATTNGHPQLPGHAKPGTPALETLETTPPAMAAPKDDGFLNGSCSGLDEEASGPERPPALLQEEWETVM
Description: as §1, §2, §3

[3] = COS-7 cells, WT hPTH-1 receptor
[4] = COS-7 cells, hDeINt truncated receptor, cAMP, read-out: EC50

AVAEIQLMHAR-NH2 [compound 6, AlaValAlaGluIleGlnLeuMetHisAlaArg-amide]
Emax [1, 3]: 238 ± 20 picomole/well | EC50 ([1]; COS-7 cells, WT hPTH-1 receptor, cAMP, read-out: EC50): 29.1 ± 15.3 µM | EC50 [2, 4]: 27 ± 12.9 µM | Emax ([2]; COS-7 cells): 243 ± 63 picomole/well

AVAEIQLMHARAKHLNSMERVEWLRKKLQDVHNY-NH2 [Peptide #7]
EC50 [1]: 313 ± 121 µM | Emax [1, 3]: 222 ± 31 picomole/well | EC50 [2]: 0.28 ± 0.16 µM | potency relative to rPTH(1-34) or hPTH(1-34) (in words) ([2]; COS-7 cells expressing hΔNt): dramatically more potent | Emax ([2]; COS-7 cells): 251 ± 39 picomole/well

CCCC[C@H](NC(=O)[C@H](CCCNC(=N)N)NC(=O)[C@H](CCC(=O)O)NC(=O)[C@@H](NC(=O)[C@H](CO)NC(=O)[C@H](C)NC(=O)[C@H](CC(C)C)NC(=O)[C@H](Cc1c[nH]cn1)NC(=O)[C@H](CCCCN)NC(=O)CNC(=O)[C@H](CC(C)C)NC(=O)[C@H](CC(N)=O)NC(=O)[C@H](Cc1c[nH]cn1)NC(=O)[C@H](CCCC)NC(=O)[C@H](CC(C)C)NC(=O)[C@H](CCC(N)=O)NC(=O)[C@@H](NC(=O)[C@H](CCC(=O)O)NC(=O)[C@H](CO)NC(=O)[C@@H](NC(=O)[C@H](C)N)C(C)C)[C@@H](C)CC)C(C)C)C(=O)N[C@@H](CCC(N)=O)C(=O)N[C@@H](Cc1c[nH]c2ccccc12)C(=O)N[C@@H](CC(C)C)C(=O)N[C@@H](CCCNC(=N)N)C(=O)N[C@@H](CCCCN)C(=O)N[C@@H](CCCCN)C(=O)N[C@@H](CC(C)C)C(=O)N[C@@H](CCC(N)=O)C(=O)N[C@@H](CC(=O)O)C(=O)N[C@H](C(=O)N[C@@H](Cc1c[nH]cn1)C(=O)N[C@@H](CC(N)=O)C(=O)N[C@@H](Cc1ccc(O)cc1)C(N)=O)C(C)C [[Nle8, 21, Y34]rPTH(1-34), [Nle^8,21,Tyr^34]-rPTH(1-34)NH2, reference compound]
Emax [1, 3]: 226 ± 31 picomole/well | Emax ([2]; COS-7 cells): 243 ± 63 picomole/well

AVSEIQLMHNLGKH-NH2 [native rPTH(1-14), AVSEIQLMHNLGKH, reference compound]
Emax [1, 3]: 221 ± 22 picomole/well | EC50 [2, 4]: 313 ± 121 µM | Emax ([2]; COS-7 cells): 222 ± 31 picomole/well

AVAEIQLMHARAKH-NH2 [Peptide #1, AlaValAlaGluIleGlnLeuMetHisAlaArgAlaLysHis-amide]
Emax [1, 3]: 243 ± 63 picomole/well | EC50 ([1]; COS-7 cells, WT hPTH-1 receptor, cAMP, read-out: EC50 Log M (converted)): 1 µM | EC50 [2, 4]: 2.37 ± 1.06 µM | Emax ([2]; COS-7 cells): 250 ± 61 picomole/well | fold more potent than native PTH(1-14) ([2]; truncated hPTH-1 receptor lacking most of the amino-terminal domain): 100 fold
